For series [1], the target named is T1, FAP (FAP-positive HT-1080-FAP cells) (Homo sapiens, UniProt Q12884).
T1 construct: expressed in transfected cells; host or cells: HT-1080 human fibrosarcoma cells, stably transfected (HT-1080-FAP)
T1 sequence (Q12884 1-760): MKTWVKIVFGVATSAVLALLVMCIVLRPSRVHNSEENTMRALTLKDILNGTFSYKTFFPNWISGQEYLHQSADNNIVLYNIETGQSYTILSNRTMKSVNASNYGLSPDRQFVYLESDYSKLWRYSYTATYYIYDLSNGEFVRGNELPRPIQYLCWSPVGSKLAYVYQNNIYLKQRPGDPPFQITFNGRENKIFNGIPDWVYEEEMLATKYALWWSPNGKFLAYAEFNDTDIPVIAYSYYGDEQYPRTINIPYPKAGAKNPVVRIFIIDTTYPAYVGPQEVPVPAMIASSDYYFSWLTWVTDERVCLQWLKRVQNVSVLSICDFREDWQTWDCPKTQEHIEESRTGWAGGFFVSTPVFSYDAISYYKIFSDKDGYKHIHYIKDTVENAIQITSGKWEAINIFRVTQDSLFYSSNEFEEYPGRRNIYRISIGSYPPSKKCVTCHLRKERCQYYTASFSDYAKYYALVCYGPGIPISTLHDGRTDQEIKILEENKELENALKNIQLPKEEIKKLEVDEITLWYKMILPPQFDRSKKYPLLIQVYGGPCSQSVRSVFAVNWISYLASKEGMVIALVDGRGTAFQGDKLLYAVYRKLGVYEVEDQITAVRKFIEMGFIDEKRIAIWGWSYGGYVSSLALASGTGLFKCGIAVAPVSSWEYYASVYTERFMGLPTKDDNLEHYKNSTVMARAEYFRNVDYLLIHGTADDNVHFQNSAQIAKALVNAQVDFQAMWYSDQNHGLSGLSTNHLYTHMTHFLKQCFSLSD
The experiment in a line: Competitive cell-binding assay against ^68Ga-FAPI-46. Particulars: competition with ^68Ga-FAPI-46, 60 min, read-out: 50% inhibitory concentration. The protocol:
A human fibrosarcoma cell line was stably transfected with FAP (HT-1080-FAP) and cultured, as previously described ([15]). A human glioblastoma cell line (U87MG, from the Chinese National Infrastructure of Cell Line Resource) was cultured in Dulbecco modified Eagle medium (Thermo Fischer Scientific) supplemented with 10% fetal bovine serum (Thermo Fisher Scientific). HT-1080-FAP cells were seeded in 24-well plates using RPMI 1640 medium with 10% fetal bovine serum, and the medium was replaced with fresh medium without fetal bovine serum when the cells reached 80%–90% density. ^68Ga-FAPI-46, ^68Ga-DOTA-2P(FAPI)2, ^68Ga-DOTA-4P(FAPI)4, or ^68Ga-DOTA-4P(FAPI)4 with 11.3 nmol of unlabeled FAPI-46 (for the blocking experiment) were added to the 24-well plates and incubated for 60, 90, and 120 min. For the competitive cell-binding assay, a gradient concentration (5.6 × 10^−13 to 10^−5 M) of FAPI-46, DOTA-2P(FAPI)2, or DOTA-4P(FAPI)4 was added to the cells and incubated with ^68Ga-FAPI-46 for 60 min. […] The radioactivity (counts per minute) was determined with a γ-counter (WIZARD^2 2480; PerkinElmer Inc.). […] The 50% inhibitory concentrations were determined by fitting a nonlinear regression model to the data using Prism software, version 8 (GraphPad Software Inc.).

Series [2] is described as follows: In vitro stability in phosphate-buffered saline and fetal bovine serum (radio-HPLC). Conditions: 4 h incubation in phosphate-buffered saline and fetal bovine serum. Type of series: in vitro ADME.
Series [3] relates to HT-1080-FAP cells. The experiment in a line: Cell uptake and blocking experiment. Type of series: cell-based, human. Particulars: 120 min. The protocol: A human fibrosarcoma cell line was stably transfected with FAP (HT-1080-FAP) and cultured, as previously described ([15]). A human glioblastoma cell line (U87MG, from the Chinese National Infrastructure of Cell Line Resource) was cultured in Dulbecco modified Eagle medium (Thermo Fischer Scientific) supplemented with 10% fetal bovine serum (Thermo Fisher Scientific). HT-1080-FAP cells were seeded in 24-well plates using RPMI 1640 medium with 10% fetal bovine serum, and the medium was replaced with fresh medium without fetal bovine serum when the cells reached 80%–90% density. ^68Ga-FAPI-46, ^68Ga-DOTA-2P(FAPI)2, ^68Ga-DOTA-4P(FAPI)4, or ^68Ga-DOTA-4P(FAPI)4 with 11.3 nmol of unlabeled FAPI-46 (for the blocking experiment) were added to the 24-well plates and incubated for 60, 90, and 120 min. For the competitive cell-binding assay, a gradient concentration (5.6 × 10^−13 to 10^−5 M) of FAPI-46, DOTA-2P(FAPI)2, or DOTA-4P(FAPI)4 was added to the cells and incubated with ^68Ga-FAPI-46 for 60 min. Similarly, a gradient concentration (5.4 × 10^−13 to 10^−5 M) of NOTA-2P(FAPI)2 or NOTA-4P(FAPI)4 was added to the cells and incubated with ^68Ga-FAPI-46 for 60 min. After each step, the cells were washed twice with phosphate-buffered saline (1 mL) and lysed with 1 M NaOH (0.5 mL). The radioactivity (counts per minute) was determined with a γ-counter (WIZARD^2 2480; PerkinElmer Inc.). All experiments were independently repeated 3 times. The 50% inhibitory concentrations were determined by fitting a nonlinear regression model to the data using Prism software, version 8 (GraphPad Software Inc.).

In series [4] the test system is HT-1080-FAP tumors. The experiment in a line: Small-animal PET in HT-1080-FAP tumor-bearing mice. Type of series: in vivo. The protocol:
(§1) All animal experimental procedures were approved by the Animal Care and Ethics Committee of Xiamen University and performed in accordance with the Guidelines for the Care and Use of Animals of the Xiamen University Laboratory Animal Center. For in vivo experiments, 6-wk-old BALB/c nude mice (Beijing Vital River Laboratory Animal Technology Co., Ltd.) were subcutaneously inoculated with HT-1080-FAP or U87 cells (5 × 10^6 in 100 μL of phosphate-buffered saline) in the right shoulder.
(§2) Dynamic PET, static PET (with or without competition), and SPECT scans with radiolabeled monomeric, dimeric, and tetrameric FAPIs were performed on HT-1080-FAP tumor–bearing mice for pharmacokinetic evaluation. Additionally, static PET with ^68Ga-labeled monomeric, dimeric, and tetrameric FAPIs was performed and compared in U87MG tumor–bearing mice.
Approximately 7.4 MBq of ^68Ga-DOTA-4P(FAPI)4 was intravenously injected into HT-1080-FAP tumor–bearing mice (n = 3) for the 60-min dynamic PET. For multiple-time-point static PET (0.5, 1, 2, and 4 h after injection), 7.4 MBq of ^68Ga-FAPI-46, ^68Ga-DOTA-2P(FAPI)2, or ^68Ga-DOTA-4P(FAPI)4 were injected into HT-1080-FAP and U87MG tumor–bearing mice (3/group). For longer-term observation, HT-1080-FAP tumor–bearing mice were intravenously injected with 7.4 MBq of ^64Cu-NOTA-2P(FAPI)2 or ^64Cu-NOTA-4P(FAPI)4 (3/group). For the in vivo blocking experiment, PET imaging was performed 1 h after the simultaneous administration of 30 nmol of unlabeled FAPI-46 and 7.4 MBq of ^68Ga-DOTA-4P(FAPI)4.

Series [5] concerns U87MG tumors. Briefly: Small-animal static PET in U87MG tumor-bearing mice. Type of series: in vivo. The protocol: as §1, §2
Approximately 7.4 MBq of ^68Ga-DOTA-4P(FAPI)4 was intravenously injected into HT-1080-FAP tumor–bearing mice (n = 3) for the 60-min dynamic PET. For multiple-time-point static PET (0.5, 1, 2, and 4 h after injection), 7.4 MBq of ^68Ga-FAPI-46, ^68Ga-DOTA-2P(FAPI)2, or ^68Ga-DOTA-4P(FAPI)4 were injected into HT-1080-FAP and U87MG tumor–bearing mice (3/group). For longer-term observation, HT-1080-FAP tumor–bearing mice were intravenously injected with 7.4 MBq of ^64Cu-NOTA-2P(FAPI)2 or ^64Cu-NOTA-4P(FAPI)4 (3/group). […]

Each structure is given as a SMILES string. pIC50: −log10 of the molar value.

As for `CN(CCCN1CCN(C(=O)COCCOCCOCCNC(=O)CCC(=O)NCCCC[C@H](NC(=O)CCC(=O)NCCOCCOCCOCC(=O)N2CCN(CCCN(C)c3ccc4nccc(C(=O)NCC(=O)N5CC(F)(F)C[C@H]5C#N)c4c3)CC2)C(=O)NCCCC[C@H](NC(=O)[C@H](CCCCNC(=O)CN2CCN(CC(=O)O)CCN(CC(=O)O)CCN(CC(=O)O)CC2)NC(=O)CCC(=O)NCCOCCOCCOCC(=O)N2CCN(CCCN(C)c3ccc4nccc(C(=O)NCC(=O)N5CC(F)(F)C[C@H]5C#N)c4c3)CC2)C(=O)NCCOCCOCCOCC(=O)N2CCN(CCCN(C)c3ccc4nccc(C(=O)NCC(=O)N5CC(F)(F)C[C@H]5C#N)c4c3)CC2)CC1)c1ccc2nccc(C(=O)NCC(=O)N3CC(F)(F)C[C@H]3C#N)c2c1` [DOTA-4P(FAPI)4], the pIC50 in series [1] is 7.81.
On the same count and under the same terms, the value for `CN(CCCN1CCN(C(=O)CN2CCN(CC(=O)O)CCN(CC(=O)O)CCN(CC(=O)O)CC2)CC1)c1ccc2nccc(C(=O)NCC(=O)N3CC(F)(F)C[C@H]3C#N)c2c1` [FAPI-46, reference compound] was 7.94.
With `CN(CCCN1CCN(C(=O)COCCOCCOCCNC(=O)CCC(=O)NCCCC[C@H](NC(=O)CCC(=O)NCCOCCOCCOCC(=O)N2CCN(CCCN(C)c3ccc4nccc(C(=O)NCC(=O)N5CC(F)(F)C[C@H]5C#N)c4c3)CC2)C(=O)NCCCC[C@H](NC(=O)[C@H](CCCCNC(=O)CN2CCN(CC(=O)[O-])CCN(CC(=O)[O-])CCN(CC(=O)[O-])CC2)NC(=O)CCC(=O)NCCOCCOCCOCC(=O)N2CCN(CCCN(C)c3ccc4nccc(C(=O)NCC(=O)N5CC(F)(F)C[C@H]5C#N)c4c3)CC2)C(=O)NCCOCCOCCOCC(=O)N2CCN(CCCN(C)c3ccc4nccc(C(=O)NCC(=O)N5CC(F)(F)C[C@H]5C#N)c4c3)CC2)CC1)c1ccc2nccc(C(=O)NCC(=O)N3CC(F)(F)C[C@H]3C#N)c2c1.[68Ga+3]` [^68Ga-DOTA-4P(FAPI)4], the results for the “in vitro stability (demetallation / free radioactivity)” value in series [2] and in series [2] (listed as 68Ga-DOTA-4P[FAPI]4) were “highly stable” and “neither significant demetallation nor free radioactivity was observed”, respectively. In series [3], the cell uptake is 57.98% ± 0.27%. Besides, the “reduction of cell uptake by blocking” value in series [3] (unlabeled FAPI-46) turned out to be 97%. In addition, the “cell uptake with blocking” value in series [3] (with 11.3 nmol unlabeled FAPI-46) is reported as 1.79% ± 0.97%. For the same compound, the elimination route result in series [4] (HT-1080-FAP tumor-bearing mice, PET) is “eliminated predominantly through the kidneys and bladder”. Besides, the “reduction in tumor uptake by blocking” value in series [4] (HT-1080-FAP tumors, 1 h after injection, unlabeled FAPI-46) was found to be 92%. In series [4] (HT-1080-FAP tumors, PET, 1 h after injection), the “tumor uptake SUVmean without blocking” value is 1.87 ± 0.08. Moreover, in series [4] (HT-1080-FAP tumors, PET, 1 h after injection, coinjection of 30 nmol unlabeled FAPI-46), the “tumor uptake SUVmean with blocking” value was 0.16 ± 0.03. The “tumor uptake SUVmean” value in series [4] (HT-1080-FAP tumors, PET, 4 h after injection) came out at 1.99 ± 0.09; in series [5] (PET, 1 h after injection), 0.72 ± 0.02. The “course of tumor uptake over time” value in series [4] (HT-1080-FAP tumors, static PET up to 4 h after injection) is “tumor uptake remained constant up to 4 h after injection”. The washout from tumor result in series [5] (PET 0.5-4 h after injection) is “minimal”.

These data come from article PMC10478824, “Development of FAPI Tetramers to Improve Tumor Uptake and Efficacy of FAPI Radioligand Therapy” (Journal of Nuclear Medicine, 2023).
